Earlier results on one compound are cited in patent US20030004143A1, “Use of NSAIDs for prevention and treatment of cellular abnormalities of the female reproductive tract” (priority 2001, published 2003).

The structures appear in SMILES notation.

One data set concerns OPC cell lines. The following applies: all OPC cell lines tested.

On to `O=C(c1ccccc1)c1ccc2n1CCC2C(=O)O` (stereo not shown) [ketorolac, (.+−.)5(benzoyl)-2,3-dihydro-1H-pyrrolizine-1carboxylic acid], for which the “OPC growth in vivo” value in the data set on OPC is “reduced OPC growth in vivo”. In the data set with OPC cell lines, the IL-6 levels result was “continuously and significantly decreased”; the IL-8 levels entry is “continuously and significantly decreased”; the PGE2 production result is “continuously and significantly decreased”.
